The NIST ThermoML archive (doi:10.1021/je100693c)

How the values were obtained:
[1] = xn = mol fraction of the nth substance listed; conditions: 101 kPa, Liquid, Vibrating tube method
[2] = excess molar enthalpy (molar enthalpy of mixing); xn = mol fraction of the nth substance listed; conditions: 101 kPa, Liquid

OCC(F)(F)F [2,2,2-trifluoroethanol] + CCCCn1cc[n+](C)c1.F[B-](F)(F)F
Conditions	excess molar enthalpy [kcal/mol]	mass density [kg/m3]
[1], 283.15 K, x2 = 0	–	1408.2
[1], 283.15 K, x2 = 0.1032	–	1360.8
[1], 283.15 K, x2 = 0.2129	–	1322.2
[1], 283.15 K, x2 = 0.299	–	1299.8
[1], 283.15 K, x2 = 0.4022	–	1279.1
[1], 283.15 K, x2 = 0.5028	–	1262.9
[1], 283.15 K, x2 = 0.5808	–	1252.3
[1], 283.15 K, x2 = 0.6912	–	1239.6
[1], 283.15 K, x2 = 0.8062	–	1228.5
[1], 283.15 K, x2 = 0.8945	–	1221.2
[1], 293.15 K, x2 = 0	–	1391.1
[1], 293.15 K, x2 = 0.1032	–	1346.9
[1], 293.15 K, x2 = 0.2129	–	1310.1
[1], 293.15 K, x2 = 0.299	–	1288.8
[1], 293.15 K, x2 = 0.4022	–	1269
[1], 293.15 K, x2 = 0.5028	–	1253.4
[1], 293.15 K, x2 = 0.5808	–	1243.3
[1], 293.15 K, x2 = 0.6912	–	1231.2
[1], 293.15 K, x2 = 0.8062	–	1220.5
[1], 293.15 K, x2 = 0.8945	–	1213.3
[1], 303.15 K, x2 = 0	–	1373.8
[1], 303.15 K, x2 = 0.1032	–	1332.9
[1], 303.15 K, x2 = 0.2129	–	1298.1
[1], 303.15 K, x2 = 0.299	–	1277.9
[1], 303.15 K, x2 = 0.4022	–	1259.1
[1], 303.15 K, x2 = 0.5028	–	1244.3
[1], 303.15 K, x2 = 0.5808	–	1234.6
[1], 303.15 K, x2 = 0.6912	–	1223.1
[1], 303.15 K, x2 = 0.8062	–	1212.8
[1], 303.15 K, x2 = 0.8945	–	1205.8
[1], 313.15 K, x2 = 0	–	1356.1
[1], 313.15 K, x2 = 0.1032	–	1319
[1], 313.15 K, x2 = 0.2129	–	1286.1
[1], 313.15 K, x2 = 0.299	–	1267
[1], 313.15 K, x2 = 0.4022	–	1249.4
[1], 313.15 K, x2 = 0.5028	–	1235.2
[1], 313.15 K, x2 = 0.5808	–	1226
[1], 313.15 K, x2 = 0.6912	–	1215
[1], 313.15 K, x2 = 0.8062	–	1205.1
[1], 313.15 K, x2 = 0.8945	–	1198.3
[1], 323.15 K, x2 = 0	–	1338
[1], 323.15 K, x2 = 0.1032	–	1304.9
[1], 323.15 K, x2 = 0.2129	–	1274.3
[1], 323.15 K, x2 = 0.299	–	1256.4
[1], 323.15 K, x2 = 0.4022	–	1239.7
[1], 323.15 K, x2 = 0.5028	–	1226.4
[1], 323.15 K, x2 = 0.5808	–	1217.5
[1], 323.15 K, x2 = 0.6912	–	1207
[1], 323.15 K, x2 = 0.8062	–	1197.6
[1], 323.15 K, x2 = 0.8945	–	1190.9
[1], 333.15 K, x2 = 0	–	1319.1
[1], 333.15 K, x2 = 0.1032	–	1290.6
[1], 333.15 K, x2 = 0.2129	–	1262.4
[1], 333.15 K, x2 = 0.299	–	1245.8
[1], 333.15 K, x2 = 0.4022	–	1230
[1], 333.15 K, x2 = 0.5028	–	1217.4
[1], 333.15 K, x2 = 0.5808	–	1209
[1], 333.15 K, x2 = 0.6912	–	1199.1
[1], 333.15 K, x2 = 0.8062	–	1190.1
[1], 333.15 K, x2 = 0.8945	–	1183.6
[2], 298.15 K, x2 = 0.0878	0.174	–
[2], 298.15 K, x2 = 0.1614	0.279	–
[2], 298.15 K, x2 = 0.2042	0.305	–
[2], 298.15 K, x2 = 0.2779	0.318	–
[2], 298.15 K, x2 = 0.3392	0.302	–
[2], 298.15 K, x2 = 0.3908	0.289	–
[2], 298.15 K, x2 = 0.435	0.273	–
[2], 298.15 K, x2 = 0.5065	0.238	–
[2], 298.15 K, x2 = 0.6581	0.162	–
[2], 298.15 K, x2 = 0.6919	0.145	–
[2], 298.15 K, x2 = 0.7549	0.119	–
[2], 298.15 K, x2 = 0.8089	0.0909	–
[2], 298.15 K, x2 = 0.9059	0.0403	–
[2], 323.15 K, x2 = 0.0459	0.0433	–
[2], 323.15 K, x2 = 0.1137	0.113	–
[2], 323.15 K, x2 = 0.2042	0.168	–
[2], 323.15 K, x2 = 0.2779	0.179	–
[2], 323.15 K, x2 = 0.3461	0.173	–
[2], 323.15 K, x2 = 0.435	0.154	–
[2], 323.15 K, x2 = 0.5359	0.128	–
[2], 323.15 K, x2 = 0.6062	0.108	–
[2], 323.15 K, x2 = 0.6978	0.079	–
[2], 323.15 K, x2 = 0.822	0.0433	–
[2], 323.15 K, x2 = 0.885	0.0286	–
